Data from PubChem BioAssay AID2060623 (Molecular Pharmacology Branch, DTP, NCI, 2025).

System: 227483-062-R1-J1-PDC complex spheroids with HUVEC/MSC, viability
Assay: Anticancer human tumor 227483-062-R1-J1-PDC patient-derived pancreatic carcinoma cell line growth inhibition [CLK]
Details: for IC50: curve of first compound; for viability, T/C: stronger effect = lower value
Summary of the method: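 Patient-derived tumor cells grown as complex spheroids with HUVEC endothelial cells and mesenchymal stem cells, treated with drug combinations. Concentrations descend in half-log steps from near clinical Cmax, or from 10 microM if Cmax unknown.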

[1] = second compound 0.0316 µM, first compound 0.0316 µM
[2] = second compound 0.0316 µM, first compound 0.1 µM
[3] = second compound 0.0316 µM, first compound 0.316 µM
[4] = second compound 0.0316 µM, first compound 1 µM
[5] = second compound 0.0316 µM, first compound 3.16 µM
[6] = second compound 0.0316 µM, first compound 10 µM
[7] = second compound 0.1 µM, first compound 0.0316 µM
[8] = second compound 0.1 µM, first compound 0.1 µM
[9] = second compound 0.1 µM, first compound 0.316 µM
[10] = second compound 0.1 µM, first compound 1 µM
[11] = second compound 0.1 µM, first compound 3.16 µM
[12] = second compound 0.1 µM, first compound 10 µM
[13] = second compound 0.316 µM, first compound 0.0316 µM
[14] = second compound 0.316 µM, first compound 0.1 µM
[15] = second compound 0.316 µM, first compound 0.316 µM
[16] = second compound 0.316 µM, first compound 1 µM
[17] = second compound 0.316 µM, first compound 3.16 µM
[18] = second compound 0.316 µM, first compound 10 µM
[19] = second compound 1 µM, first compound 0.0316 µM
[20] = second compound 1 µM, first compound 0.1 µM
[21] = second compound 1 µM, first compound 0.316 µM
[22] = second compound 1 µM, first compound 1 µM
[23] = second compound 1 µM, first compound 3.16 µM
[24] = second compound 1 µM, first compound 10 µM
[25] = second compound 3.16 µM, first compound 0.0316 µM
[26] = second compound 3.16 µM, first compound 0.1 µM
[27] = second compound 3.16 µM, first compound 0.316 µM
[28] = second compound 3.16 µM, first compound 1 µM
[29] = second compound 3.16 µM, first compound 3.16 µM
[30] = second compound 3.16 µM, first compound 10 µM
[31] = second compound 10 µM, first compound 0.0316 µM
[32] = second compound 10 µM, first compound 0.1 µM
[33] = second compound 10 µM, first compound 0.316 µM
[34] = second compound 10 µM, first compound 1 µM
[35] = second compound 10 µM, first compound 3.16 µM
[36] = second compound 10 µM, first compound 10 µM
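Also: spheroids exposed to compounds for seven days before readout.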
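For viability, T/C in this document: percent of DMSO vehicle control luminescence as 100% viability.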

With `CC1(C)CCC(CN2CCN(c3ccc(C(=O)NS(=O)(=O)c4ccc(NCC5CCOCC5)c([N+](=O)[O-])c4)c(Oc4cnc5[nH]ccc5c4)c3)CC2)=C(c2ccc(Cl)cc2)C1` + CN1CCN(c2cc(C(=O)Nc3cc4cc(-c5cnn(C)c5)ccc4cn3)ccn2)CC1 the IC50 (second compound 0.0316 µM) was 5670 nM, the IC50 (second compound 0.1 µM) was 4230 nM and the IC50 (second compound 0.316 µM) was < 31.6 nM. The IC50 (second compound 1 µM) was < 31.6 nM, the IC50 (second compound 3.16 µM) was < 31.6 nM and the IC50 (second compound 10 µM) was < 31.6 nM. The viability, T/C [1] was 93.9%, the viability, T/C [2] was 96.5% and the viability, T/C [3] was 110%. For the same molecule, the viability, T/C [4] was 110%, the viability, T/C [5] was 89.8% and the viability, T/C [6] was 11.5%. The viability, T/C [7] was 58%, the viability, T/C [8] was 58.1% and the viability, T/C [9] was 63.1%. It also gave a viability, T/C [10] of 62.7%, a viability, T/C [11] of 81.3% and a viability, T/C [12] of 6.59%. The viability, T/C [13] was 5.04%, the viability, T/C [14] was 6.53% and the viability, T/C [15] was 5.51%. It also gave a viability, T/C [16] of 5.88%, a viability, T/C [17] of 6.54% and a viability, T/C [18] of 1.59%. It also gave a viability, T/C [19] of 2.1%, a viability, T/C [20] of 2.74% and a viability, T/C [21] of 2.88%. For the same molecule, the viability, T/C [22] was 2.08%, the viability, T/C [23] was 1.44% and the viability, T/C [24] was 0.36%. The viability, T/C [25] was 3.39%, the viability, T/C [26] was 4.13% and the viability, T/C [27] was 2.75%. The viability, T/C [28] was 2.22%, the viability, T/C [29] was 2.43% and the viability, T/C [30] was 2.73%. For the same molecule, the viability, T/C [31] was 2.85%, the viability, T/C [32] was 2.4% and the viability, T/C [33] was 1.5%. For the same molecule, the viability, T/C [34] was 4.14%, the viability, T/C [35] was 1.34% and the viability, T/C [36] was 0.39%.
In the case of `CC1COCCN1c1cc(C2(S(C)(=N)=O)CC2)nc(-c2ccnc3[nH]ccc23)n1` (stereo not drawn) + CN1CCN(c2cc(C(=O)Nc3cc4cc(-c5cnn(C)c5)ccc4cn3)ccn2)CC1, the IC50 (second compound 0.0316 µM) is reported as 8890 nM, the IC50 (second compound 0.1 µM) is reported as 1120 nM and the IC50 (second compound 0.316 µM) is reported as < 31.6 nM. For the same molecule, the IC50 (second compound 1 µM) was < 31.6 nM, the IC50 (second compound 3.16 µM) was < 31.6 nM and the IC50 (second compound 10 µM) was < 31.6 nM. The viability, T/C [1] was 82.8%, the viability, T/C [2] was 98.1% and the viability, T/C [3] was 93.7%. It also gave a viability, T/C [4] of 84.6%, a viability, T/C [5] of 85.3% and a viability, T/C [6] of 45.8%. The viability, T/C [7] was 60.5%, the viability, T/C [8] was 74.2% and the viability, T/C [9] was 60.2%. It also gave a viability, T/C [10] of 51.9%, a viability, T/C [11] of 33.3% and a viability, T/C [12] of 21.7%. For the same molecule, the viability, T/C [13] was 6.08%, the viability, T/C [14] was 4.49% and the viability, T/C [15] was 4.56%. It also gave a viability, T/C [16] of 4.4%, a viability, T/C [17] of 6.8% and a viability, T/C [18] of 2.88%. For the same molecule, the viability, T/C [19] was 1.88%, the viability, T/C [20] was 2.55% and the viability, T/C [21] was 1.66%. For the same molecule, the viability, T/C [22] was 3.91%, the viability, T/C [23] was 2.05% and the viability, T/C [24] was 1.59%. It also gave a viability, T/C [25] of 4.44%, a viability, T/C [26] of 3.71% and a viability, T/C [27] of 4.61%. It also gave a viability, T/C [28] of 3.67%, a viability, T/C [29] of 2.93% and a viability, T/C [30] of 2.93%. It also gave a viability, T/C [31] of 3.62%, a viability, T/C [32] of 2.17% and a viability, T/C [33] of 2.15%. It also gave a viability, T/C [34] of 1.98%, a viability, T/C [35] of 2.16% and a viability, T/C [36] of 3.07%.
In the case of `NC(=O)C(=Cn1cnc(-c2cc(C(F)(F)F)cc(C(F)(F)F)c2)n1)c1cncnc1` + CN1CCN(c2cc(C(=O)Nc3cc4cc(-c5cnn(C)c5)ccc4cn3)ccn2)CC1, the IC50 (second compound 0.0316 µM) is reported as 387 nM, the IC50 (second compound 0.1 µM) is reported as 62.1 nM and the IC50 (second compound 0.316 µM) is reported as < 9.49 nM. The IC50 (second compound 1 µM) was < 9.49 nM, the IC50 (second compound 3.16 µM) was < 9.49 nM and the IC50 (second compound 10 µM) was < 9.49 nM. It also gave a viability, T/C (second compound 0.0316 µM, first compound 0.00949 µM) of 83.4%, a viability, T/C (second compound 0.0316 µM, first compound 0.03 µM) of 105% and a viability, T/C (second compound 0.0316 µM, first compound 0.0949 µM) of 78.6%. The viability, T/C (second compound 0.0316 µM, first compound 0.3 µM) was 60.6%, the viability, T/C (second compound 0.0316 µM, first compound 0.949 µM) was 18.8% and the viability, T/C (second compound 0.0316 µM, first compound 3 µM) was 5.44%. The viability, T/C (second compound 0.1 µM, first compound 0.00949 µM) was 69.7%, the viability, T/C (second compound 0.1 µM, first compound 0.03 µM) was 76.6% and the viability, T/C (second compound 0.1 µM, first compound 0.0949 µM) was 35.9%. For the same molecule, the viability, T/C (second compound 0.1 µM, first compound 0.3 µM) was 13.9%, the viability, T/C (second compound 0.1 µM, first compound 0.949 µM) was 3.19% and the viability, T/C (second compound 0.1 µM, first compound 3 µM) was 1.66%. For the same molecule, the viability, T/C (second compound 0.316 µM, first compound 0.00949 µM) was 3.14%, the viability, T/C (second compound 0.316 µM, first compound 0.03 µM) was 3.15% and the viability, T/C (second compound 0.316 µM, first compound 0.0949 µM) was 1.63%. It also gave a viability, T/C (second compound 0.316 µM, first compound 0.3 µM) of 1.68%, a viability, T/C (second compound 0.316 µM, first compound 0.949 µM) of 1.4% and a viability, T/C (second compound 0.316 µM, first compound 3 µM) of 1.39%. The viability, T/C (second compound 1 µM, first compound 0.00949 µM) was 1.5%, the viability, T/C (second compound 1 µM, first compound 0.03 µM) was 1.97% and the viability, T/C (second compound 1 µM, first compound 0.0949 µM) was 1.83%. The viability, T/C (second compound 1 µM, first compound 0.3 µM) was 2.32%, the viability, T/C (second compound 1 µM, first compound 0.949 µM) was 2.43% and the viability, T/C (second compound 1 µM, first compound 3 µM) was 2.17%. It also gave a viability, T/C (second compound 3.16 µM, first compound 0.00949 µM) of 1.89%, a viability, T/C (second compound 3.16 µM, first compound 0.03 µM) of 3.42% and a viability, T/C (second compound 3.16 µM, first compound 0.0949 µM) of 3.73%. It also gave a viability, T/C (second compound 3.16 µM, first compound 0.3 µM) of 5.05%, a viability, T/C (second compound 3.16 µM, first compound 0.949 µM) of 3.43% and a viability, T/C (second compound 3.16 µM, first compound 3 µM) of 3.12%. The viability, T/C (second compound 10 µM, first compound 0.00949 µM) was 1.57%, the viability, T/C (second compound 10 µM, first compound 0.03 µM) was 2.14% and the viability, T/C (second compound 10 µM, first compound 0.0949 µM) was 2.32%. For the same molecule, the viability, T/C (second compound 10 µM, first compound 0.3 µM) was 2.15%, the viability, T/C (second compound 10 µM, first compound 0.949 µM) was 1.97% and the viability, T/C (second compound 10 µM, first compound 3 µM) was 1.44%.
With `Nc1ccccc1NC(=O)c1ccc(CNC(=O)OCc2cccnc2)cc1` + CN1CCN(c2cc(C(=O)Nc3cc4cc(-c5cnn(C)c5)ccc4cn3)ccn2)CC1 the IC50 (second compound 0.0316 µM) was > 10000 nM, the IC50 (second compound 0.1 µM) was 1040 nM and the IC50 (second compound 0.316 µM) was < 31.6 nM. The IC50 (second compound 1 µM) was < 31.6 nM, the IC50 (second compound 3.16 µM) was < 31.6 nM and the IC50 (second compound 10 µM) was < 31.6 nM. For the same molecule, the viability, T/C [1] was 106%, the viability, T/C [2] was 108% and the viability, T/C [3] was 107%. It also gave a viability, T/C [4] of 126%, a viability, T/C [5] of 131% and a viability, T/C [6] of 51.6%. The viability, T/C [7] was 63.7%, the viability, T/C [8] was 76% and the viability, T/C [9] was 57.4%. For the same molecule, the viability, T/C [10] was 48.6%, the viability, T/C [11] was 36.9% and the viability, T/C [12] was 17.1%. For the same molecule, the viability, T/C [13] was 4.44%, the viability, T/C [14] was 6.25% and the viability, T/C [15] was 7.44%. The viability, T/C [16] was 3.95%, the viability, T/C [17] was 1.6% and the viability, T/C [18] was 1.34%. It also gave a viability, T/C [19] of 2.7%, a viability, T/C [20] of 1.53% and a viability, T/C [21] of 1.99%. The viability, T/C [22] was 2.47%, the viability, T/C [23] was 1.45% and the viability, T/C [24] was 1.58%. The viability, T/C [25] was 3.26%, the viability, T/C [26] was 4.66% and the viability, T/C [27] was 2.26%. For the same molecule, the viability, T/C [28] was 2.68%, the viability, T/C [29] was 2.71% and the viability, T/C [30] was 2.41%. It also gave a viability, T/C [31] of 3.24%, a viability, T/C [32] of 1.86% and a viability, T/C [33] of 2.94%. For the same molecule, the viability, T/C [34] was 2.31%, the viability, T/C [35] was 2.71% and the viability, T/C [36] was 1.85%.
